Read-outs that look alike come from different tables or passages of the source.
Tested on: Boophilus microplus
Test: In vitro immersion of engorged female ticks in (S)-methoprene: egg laying, egg weight, hatching
Settings: for Eggs Viable / Eggs Weight / Number of Ticks Laying Eggs (Day 14): 10 ticks treated; for Eggs Hatch (%): eggs incubated another 4 weeks; for Total Egg Mass / Total Viable Egg Mass / Total Number of Ticks Laying Eggs: both replicates; for Total Number of Ticks Laying Eggs: 20 ticks treated; for Percent Reduction in Egg Mass per Tick / Percent Reduction in Number of Ticks Laying Eggs / Percent Reduction in Total Egg Mass / inhibition at 100 ppm / inhibition at 1000 ppm / inhibition at 10000 ppm / inhibition at 100000 ppm: vs 0 ppm; for inhibition at 100 ppm / inhibition at 1000 ppm / inhibition at 10000 ppm / inhibition at 100000 ppm: Rhipicephalus microplus
From the text: Engorged female ticks were separated into groups of 10, weighed and placed in small containers. Group assignments were adjusted so that the total weight of ticks in each group was similar. Each container of 10 ticks was then randomly assigned to one of the five treatment groups, with two replicates per group. Each replicate of ten female ticks each was then immersed in a solution of (S)-methoprene at a concentration of 0, 100, 1000, 10000 and 100000 ppm of (S)-methoprene diluted in acetone:water (40:60 vN). The ticks were maintained immersed in a treatment for 2 minutes.
After exposure, ticks were removed and dried in a pad prepared with paper towels. Each group was then placed into a clean container identified with the treatment group and incubated for 2 weeks at approximately 27° Celsius and 60% or higher relative humidity to determine the proportion of egg laying females. Eggs laid were weighed and incubated for another 4-week period for hatching observation.

Question: COC(C)(C)CCC[C@H](C)C/C=C/C(C)=C/C(=O)OC(C)C [(S)-methoprene] was tested. Which “Egg Mass per Tick” value (100 ppm) did it give?
Answer: 0.173 g

Question: What about the “Viable Egg Mass per Tick” value (100 ppm) of the same molecule?
Answer: 0.173 g

Question: And the “Eggs Viable” value (100 ppm, Replicate A)?
Answer: 1.38 g

Question: And the “Eggs Weight” value (100 ppm, Replicate A)?
Answer: 1.38 g

Question: What about the “Number of Ticks Laying Eggs (Day 14)” value (100 ppm, Replicate A) of the same molecule?
Answer: 9

Question: What about the “Eggs Hatch (%)” value (100 ppm, Replicate A) of the same molecule?
Answer: 100%

Question: And the “Eggs Viable” value (100 ppm, Replicate B)?
Answer: 1.39 g

Question: And the “Eggs Weight” value (100 ppm, Replicate B)?
Answer: 1.39 g

Question: What about the “Number of Ticks Laying Eggs (Day 14)” value (100 ppm, Replicate B) of the same molecule?
Answer: 7

Question: What about the “Eggs Hatch (%)” value (100 ppm, Replicate B) of the same molecule?
Answer: 100%

Question: What about the “Total Egg Mass” value (100 ppm) of the same molecule?
Answer: 2.77 g

Question: What about the “Total Viable Egg Mass” value (100 ppm) of the same molecule?
Answer: 2.77 g

Question: And the “Total Number of Ticks Laying Eggs” value (100 ppm)?
Answer: 16

Question: What about the “Percent Reduction in Egg Mass per Tick” value (100 ppm) of the same molecule?
Answer: 1%

Question: And the “Percent Reduction in Number of Ticks Laying Eggs” value (“Percent Reduction in Number” below) (100 ppm)?
Answer: 20%

Question: And the “Percent Reduction in Total Egg Mass” value (100 ppm)?
Answer: 21%

Question: What about the “Egg Mass per Tick” value (1,000 ppm) of the same molecule?
Answer: 0.152 g

Question: And the “Viable Egg Mass per Tick” value (1,000 ppm)?
Answer: 0.022 g

Question: What about the “Eggs Viable” value (1,000 ppm, Replicate A) of the same molecule?
Answer: 0.09 g

Question: What about the “Eggs Weight” value (1,000 ppm, Replicate A) of the same molecule?
Answer: 0.47 g

Question: What about the “Number of Ticks Laying Eggs (Day 14)” value (1,000 ppm, Replicate A) of the same molecule?
Answer: 3

Question: What about the “Eggs Hatch (%)” value (1,000 ppm, Replicate A) of the same molecule?
Answer: 20%

Question: What about the “Eggs Viable” value (1,000 ppm, Replicate B) of the same molecule?
Answer: 0.04 g

Question: What about the “Eggs Weight” value (1,000 ppm, Replicate B) of the same molecule?
Answer: 0.44 g

Question: What about the “Number of Ticks Laying Eggs (Day 14)” value (1,000 ppm, Replicate B) of the same molecule?
Answer: 3

Question: And the “Eggs Hatch (%)” value (1,000 ppm, Replicate B)?
Answer: 10%

Question: What about the “Total Egg Mass” value (1,000 ppm) of the same molecule?
Answer: 0.91 g

Question: And the “Total Viable Egg Mass” value (1,000 ppm)?
Answer: 0.13 g

Question: What about the “Total Number of Ticks Laying Eggs” value (1,000 ppm) of the same molecule?
Answer: 6

Question: What about the “Percent Reduction in Egg Mass per Tick” value (1,000 ppm) of the same molecule?
Answer: 13%

Question: What about the “Percent Reduction in Number” value (1,000 ppm) of the same molecule?
Answer: 70%

Question: And the “Percent Reduction in Total Egg Mass” value (1,000 ppm)?
Answer: 74%

Question: What about the “Egg Mass per Tick” value (10,000 ppm) of the same molecule?
Answer: 0.134 g

Question: What about the “Viable Egg Mass per Tick” value (10,000 ppm) of the same molecule?
Answer: 0 g

Question: What about the “Eggs Viable” value (10,000 ppm, Replicate A) of the same molecule?
Answer: 0 g

Question: And the “Eggs Weight” value (10,000 ppm, Replicate A)?
Answer: 1.22 g

Question: And the “Number of Ticks Laying Eggs (Day 14)” value (10,000 ppm, Replicate A)?
Answer: 9

Question: What about the “Eggs Hatch (%)” value (10,000 ppm, Replicate A) of the same molecule?
Answer: 0%

Question: And the “Eggs Viable” value (10,000 ppm, Replicate B)?
Answer: 0 g

Question: And the “Eggs Weight” value (10,000 ppm, Replicate B)?
Answer: 0.92 g

Question: What about the “Number of Ticks Laying Eggs (Day 14)” value (10,000 ppm, Replicate B) of the same molecule?
Answer: 7

Question: What about the “Eggs Hatch (%)” value (10,000 ppm, Replicate B) of the same molecule?
Answer: 0%

Question: And the “Total Egg Mass” value (10,000 ppm)?
Answer: 2.14 g

Question: What about the “Total Viable Egg Mass” value (10,000 ppm) of the same molecule?
Answer: 0 g

Question: And the “Total Number of Ticks Laying Eggs” value (10,000 ppm)?
Answer: 16

Question: What about the “Percent Reduction in Egg Mass per Tick” value (10,000 ppm) of the same molecule?
Answer: 23%

Question: What about the “Percent Reduction in Number” value (10,000 ppm) of the same molecule?
Answer: 20%

Question: What about the “Percent Reduction in Total Egg Mass” value (10,000 ppm) of the same molecule?
Answer: 39%

Question: What about the “Egg Mass per Tick” value (100,000 ppm) of the same molecule?
Answer: 0.125 g

Question: And the “Viable Egg Mass per Tick” value (100,000 ppm)?
Answer: 0 g

Question: What about the “Eggs Viable” value (100,000 ppm, Replicate A) of the same molecule?
Answer: 0 g

Question: What about the “Eggs Weight” value (100,000 ppm, Replicate A) of the same molecule?
Answer: 0.58 g

Question: And the “Number of Ticks Laying Eggs (Day 14)” value (100,000 ppm, Replicate A)?
Answer: 4

Question: What about the “Eggs Hatch (%)” value (100,000 ppm, Replicate A) of the same molecule?
Answer: 0%

Question: What about the “Eggs Viable” value (100,000 ppm, Replicate B) of the same molecule?
Answer: 0 g

Question: And the “Eggs Weight” value (100,000 ppm, Replicate B)?
Answer: 0.42 g

Question: What about the “Number of Ticks Laying Eggs (Day 14)” value (100,000 ppm, Replicate B) of the same molecule?
Answer: 4

Question: What about the “Eggs Hatch (%)” value (100,000 ppm, Replicate B) of the same molecule?
Answer: 0%

Question: What about the “Total Egg Mass” value (100,000 ppm) of the same molecule?
Answer: 1.00 g

Question: What about the “Total Viable Egg Mass” value (100,000 ppm) of the same molecule?
Answer: 0 g

Question: And the “Total Number of Ticks Laying Eggs” value (100,000 ppm)?
Answer: 8

Question: And the “Percent Reduction in Egg Mass per Tick” value (100,000 ppm)?
Answer: 29%

Question: What about the “Percent Reduction in Number” value (100,000 ppm) of the same molecule?
Answer: 60%

Question: What about the “Percent Reduction in Total Egg Mass” value (100,000 ppm) of the same molecule?
Answer: 71%

Question: What about the inhibition at 100 ppm (100 ppm, read-out: Percent Reduction in Viable Egg Mass) of the same molecule?
Answer: 21%

Question: What about the inhibition at 100 ppm (100 ppm, read-out: Percent Reduction in Viable Egg Mass per Tick) of the same molecule?
Answer: 1%

Question: And the inhibition at 1000 ppm (1,000 ppm, read-out: Percent Reduction in Viable Egg Mass)?
Answer: 96%

Question: What about the inhibition at 1000 ppm (1,000 ppm, read-out: Percent Reduction in Viable Egg Mass per Tick) of the same molecule?
Answer: 87%

Question: What about the inhibition at 10000 ppm (10,000 ppm, read-out: Percent Reduction in Viable Egg Mass) of the same molecule?
Answer: 100%

Question: And the inhibition at 10000 ppm (10,000 ppm, read-out: Percent Reduction in Viable Egg Mass per Tick)?
Answer: 100%

Question: What about the inhibition at 100000 ppm (100,000 ppm, read-out: Percent Reduction in Viable Egg Mass) of the same molecule?
Answer: 100%

Question: What about the inhibition at 100000 ppm (100,000 ppm, read-out: Percent Reduction in Viable Egg Mass per Tick) of the same molecule?
Answer: 100%

Question: What about the egg laying (all treatment groups (100 to 100000 ppm)) of the same molecule?
Answer: Eggs were laid

Question: What about the egg viability (concentrations at and above 10,000 ppm) of the same molecule?
Answer: completely inhibited

Question: And the egg hatching (concentrations of 10,000 ppm and above)?
Answer: did not hatch

— patent US20060046988A1, “Methoprene formulations for the control of tick infestations” (priority 2004, published 2006)
